The test system of assay [1] is Boll Weevil (Anthonomus grandis). The assay is described as follows: Test B.2 Control of boll weevil, insect diet with eggs, 24-well plates. The class given is in vivo. Conditions: 5 days. An excerpt: (§1) Synergism can be described as an interaction where the combined effect of two or more compounds is greater than the sum of the individual effects of each of the compounds. The presence of a synergistic effect in terms of percent control, between two mixing partners (X and Y) can be calculated using the Colby equation (Colby, S. R., 1967, Calculating Synergistic and Antagonistic Responses in Herbicide Combinations, Weeds, 15, 20-22):
(§2) When the observed combined control effect is greater than the expected combined control effect (E), then the combined effect is synergistic.
For evaluating control of boll weevil (Anthonomus grandis) the test unit consisted of 24-well-microtiter plates containing an insect diet and 20-30 A. grandis eggs. The compounds or mixtures were formulated using a solution containing 75 wt % water and 25 wt % DMSO. Different concentrations of formulated compounds or mixtures were sprayed onto the insect diet at 20 μl, using a custom built micro atomizer, at two replications.
For experimental mixtures in these tests identical volumes of both mixing partners at the desired concentrations respectively, were mixed together.
After application, microtiter plates were incubated at 23±1° C., 50±5% RH for 5 days. Egg and larval mortality was then visually assessed.

Assay [2] concerns Green Peach Aphid (Myzus persicae). Description: Test B.1 Control of green peach aphid through systemic means, artificial diet under membrane, 96-well plates. Type of assay: in vivo. The settings on record: 3 days.
Excerpt: as §1, §2
For evaluating control of green peach aphid (Myzus persicae) through systemic means the test unit consisted of 96-well-microtiter plates containing liquid artificial diet under an artificial membrane.
The compounds or mixtures were formulated using a solution containing 75 wt % water and 25 wt % DMSO. Different concentrations of formulated compounds or mixtures were pipetted into the aphid diet, using a custom built pipetter, at two replications. For experimental mixtures in these tests identical volumes of both mixing partners at the desired concentrations respectively, were mixed together.
After application, 5-8 adult aphids were placed on the artificial membrane inside the microtiter plate wells. The aphids were then allowed to suck on the treated aphid diet and incubated at 23±1° C., 50+5% RH for 3 days. Aphid mortality and fecundity was then visually assessed.

[3] abbreviates: C.I.240 alone at 0.08 ppm (0 + 0.08).
Setting [4] is: compound II alone at 0.4 ppm (0.4 + 0).

`CC1(C)C(C=C(Cl)Cl)C1C(=O)OC(C#N)c1cccc(Oc2ccccc2)c1` (stereo not drawn) [Alpha-Cypermethrin, alpha-cypermethrin]: the “Average Control %” value in assay [1] (compound II alone at 0.08 ppm (0.08 + 0)) is recorded as 0%.
In the case of `Cc1cc(C2=NOC(c3cc(Cl)cc(Cl)c3)(C(F)(F)F)C2)ccc1C(=O)NCC(=O)NCC(F)(F)F` (stereo not drawn) [C.I.240], the “Average Control %” value in assay [1] (setting [3]) worked out at 0%; in assay [1] (C.I.240 alone at 0.4 ppm (0 + 0.4)), 50%; in assay [2] (setting [3]), 0%; in assay [2] (C.I.240 alone at 2 ppm (0 + 2)), 0%.
On to `N#CCNC(=O)c1cnccc1C(F)(F)F` [Flonicamid, flonicamid], for which the “Average Control %” value in assay [1] (compound II alone at 4 ppm (4 + 0)) is listed as 0%.
Take `O=[N+]([O-])NC1=NCCN1Cc1ccc(Cl)nc1` [Imidacloprid, imidacloprid]: the “Average Control %” value in assay [2] (setting [4]) is listed as 0%.
On to `CN1COCN(Cc2cnc(Cl)s2)/C1=N\[N+](=O)[O-]` [Thiamethoxam, thiamethoxam], for which, in assay [2] (setting [4]), the “Average Control %” value came out at 25%.
In the case of abamectin, in assay [1] (compound II alone at 0.016 ppm (0.016 + 0)), the “Average Control %” value was 50%.

Values taken from patent publication US20190166843A1, “Pesticidal Active Mixtures Comprising Isoxazoline Compounds I” (BASF SE, priority 2008, published 2019).
